Data published in patent publication US20260176245A1, “MODULATORS OF SORTILIN ACTIVITY” (Vesper Bio ApS, priority 2022, published 2026).
pKd: −log10 of the molar value.

Molecular target: T1, Human (6-His) Sortilin (Homo sapiens, UniProt Q99523)
T1 construct: 6-His; purchased RnD Systems
T1 sequence (Q99523 78-755 limits assumed): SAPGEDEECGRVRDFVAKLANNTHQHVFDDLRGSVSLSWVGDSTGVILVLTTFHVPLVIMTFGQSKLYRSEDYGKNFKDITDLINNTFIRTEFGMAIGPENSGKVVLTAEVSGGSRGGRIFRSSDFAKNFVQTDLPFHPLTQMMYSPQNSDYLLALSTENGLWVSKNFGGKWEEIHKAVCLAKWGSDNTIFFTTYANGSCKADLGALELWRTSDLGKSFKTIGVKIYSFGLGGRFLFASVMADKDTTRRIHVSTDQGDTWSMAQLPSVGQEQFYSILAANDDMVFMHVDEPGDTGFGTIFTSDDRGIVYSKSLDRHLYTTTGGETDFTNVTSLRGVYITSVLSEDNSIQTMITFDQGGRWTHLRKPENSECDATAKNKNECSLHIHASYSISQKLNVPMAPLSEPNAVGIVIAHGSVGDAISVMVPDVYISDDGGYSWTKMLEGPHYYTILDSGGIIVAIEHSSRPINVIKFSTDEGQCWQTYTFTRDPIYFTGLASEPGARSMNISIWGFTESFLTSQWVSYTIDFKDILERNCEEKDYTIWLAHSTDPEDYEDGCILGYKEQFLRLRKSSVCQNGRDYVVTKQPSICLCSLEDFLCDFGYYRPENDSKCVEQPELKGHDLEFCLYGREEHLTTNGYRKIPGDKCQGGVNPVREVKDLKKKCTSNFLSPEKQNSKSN
Test: Human Sortilin GCI (Grating-Coupled Interferometry) binding assay
Conditions: Creoptix WAVE-RAPID, single concentration, immobilised Human (6-His) Sortilin, 1:1 kinetic binding model; read-out: h-Sortilin GCI KD
Description: The exemplified compounds of the invention were tested in a Grating-Coupled Interferometry (GCI) Sortilin binding assay. The Equilibrium dissociation constant (KD) is a measure of the propensity of a complex (i.e: a ligand and receptor) to dissociate and is used to describe the affinity of an interaction between the constituents of the complex (i.e: a ligand and receptor). The skilled person will recognise that the lower the KD value, the less of the compound needed to achieve the desired effect, and as a result, the chances of undesirable off-target effects are reduced.
Compound affinity was determined by measuring the association and dissociation of compounds to Human (6-His) Sortilin (RnD Systems) using a Creoptix Wave instrument (Creoptix-Malvern Panalytical). Both Human (6-His) Sortilin immobilisation and compound evaluation were performed in HBS-N running buffer: 10 mM HEPES pH 7.4, 150 mM NaCl, 1% DMSO-Cytiva which was filtered and degassed for 15 minutes before use.
A 4PCH WAVEchip (Creoptix-Malvern Panalytical) was conditioned prior to immobilisation using 0.2×HBS-N running buffer with 0.1 M Borate pH 9.0, 1 M NaCl (Xantec Bioanalytics) injected across all flow cells. A buffer exchange was performed to 1×HBS-N running buffer and Human (6-His) Sortilin was immobilised in pH 5.0 Acetate solution (Cytiva) via amine coupling following EDC/NHS (Cytiva) surface activation and then passivated via injection of 50 mM Tris pH 7.4.
Compounds were tested in ‘WAVE-RAPID’ assays at a single concentration (usually: 1 μM, 10 µM or 100 µM) in time-response format (short pulses of increasing duration) using either ‘Weak-Binders’ (Settings: 400 μl/min flow rate, 40 Hz acquisition rate, 5 seconds association time and 20 seconds dissociation time) or ‘Intermediate Binders’ (Settings: 100 μl/min flow rate, 10 Hz acquisition rate, 25 seconds association time and 300 seconds dissociation time) settings. Which was deemed most appropriate was based upon the affinity and kinetics of the compound tested.
DMSO calibration was performed as per manufacturers requirements by injection of running buffer containing DMSO 0.5% above that of the running buffer DMSO (1.5% in that instance) every 20 cycles. All data was double referenced (blank and reference-channel subtracted) with KD values calculated by fitting to a ‘1:1 kinetic’ binding model using ‘WAVEcontrol’ software (Creoptix—Malvern Panalytical).

SMILES	pKd
CC(=O)N[C@@H](C)C(=O)N[C@@](C)(CCC(C)(C)C)C(=O)O [Example 2, (2S)-2-[(2S)-2-acetamidopropanamido]-2,5,5-trimethylhexanoic acid]	5.33
CC(=O)N[C@@H](Cc1ccccc1)C(=O)N[C@@](C)(CCC(C)(C)C)C(=O)O [Example 4, (2S)-2-[(2S)-2-acetamido-3-phenylpropanamido]-2,5,5-trimethylhexanoic acid]	5.70
CC[C@H](C)[C@H](NC(C)=O)C(=O)N[C@@](C)(CCC(C)(C)C)C(=O)O [Example 3, (2S)-2-[(2S,3S)-2-acetamido-3-methylpentanamido]-2,5,5-trimethylhexanoic acid]	5.89
CC(=O)NCC(=O)N[C@@](C)(CCC(C)(C)C)C(=O)O [Example 1, 2-(2-acetamidoacetamido)-2,5,5-trimethylhexanoic acid]	4.91
